Measurements reported in publication PMC4279419, “Angiostatic, tumor inflammatory and anti-tumor effects of CXCL4^47–70 and CXCL4L1^47–70 in an EGF-dependent breast cancer model” (Oncotarget, 2014).
Like-named read-outs stand apart in the source and are kept apart here. Where no end group is shown, it is not given here.

Legend:
[1] = tested on: human acute monocytic leukemia cells (THP-1); assay: Transendothelial multiscreen chemotaxis assay; type: cell-based; conditions: HMVEC monolayer, n=3 to 4; for effect on CCL5-induced transendothelial migration: peptide 1000 to 5000 ng/ml + CCL5 20 ng/ml, 3 to 5 hours, 37°C, ATPlite
Description: Monocyte chemotaxis assays were performed on 5 μm hydrophilic polycarbonate multiscreen-MIC plates (Millipore) using the human acute monocytic leukemia cells (THP-1). To promote efficient synergy between CCL5 on one hand and CXCL4, CXCL4^47–70 or CXCL4L1^47–70 on the other hand, the upper compartment of these plates was coated with a HMVEC monolayer. HMVEC were seeded on a 0.1% gelatin layer 24 hours prior to the chemotaxis assay. The following day, dilutions of recombinant human CCL5 (PeproTech, Rocky Hill, CT), natural human CXCL4 (isolated from stimulated platelets as previously described), recombinant human CXCL4L1 (isolated from baculovirus-infected Sf9 cells as previously described), synthetic CXCL4^47–70, synthetic CXCL4L1^47–70 (both produced as described above), or combinations thereof were added to the lower compartment of the plate, in a volume of 150 μl. After removal of the HMVEC medium, 0.35 × 10^6 THP-1 cells were added to the upper wells, resuspended in phenol red-free RPMI + 0.1 g/100 ml BSA (endotoxin-free BSA; Sigma CatN° A8806) after centrifugation of the cells at 200g for 10 min. Plates were incubated at 37°C for 3 to 5 hours before quantifying the amount of cells that migrated towards the chemokine concentrations. For that purpose, we used the ATPlite kit (PerkinElmer, Waltham, MA) allowing quantitative luminescent detection of ATP, which is representative of THP-1 cell counts in the lower wells. This reaction was performed in a view white 96-well plate (PerkinElmer). A chemotactic index (CI) was calculated, defined as the ratio of luminescence after chemokine treatment and luminescence after control treatment.

[2] = tested on: human dermal lymphatic microvascular endothelial cells (HLEC); assay: HLEC MTT proliferation assay; type: cell-based; conditions: control PI=1, 3 to 4 days, MTT, mean ± s.e.m., n=4
Description: First, HMVEC and HLEC were seeded at 5 × 10^3 cells/well in EBM-2 + 1% FCS in a 96-well plate, whereas MDA-MB-231 were starved of growth factors overnight by replacing their growth medium with DMEM (serum-free) prior to seeding the tumor cells at 15 × 10^2 cells/well in DMEM + 1% FCS. As for the rest of the assay, the same protocol applies to all cells. Once adherent, cells were incubated with different concentrations of the peptides CXCL4^47–70 and CXCL4L1^47–70 as single stimuli or in combination with recombinant human EGF (3 ng/ml; R&D Systems, Minneapolis, MN) at 37°C/5% CO2. All conditions were tested in triplicate or quadruplicate. After 3 to 4 days, stimulation medium was removed and a sterile MTT solution was added [0.04 g/100 ml thiazolyl blue (Sigma-Aldrich, St. Louis, MO) in 20% PBS/80% RPMI without phenol red (Lonza)] for 3 to 4 hours. The formed formasan crystals were dissolved by replacing the MTT solution with acidic propanol (0.04 M HCl, 0.1% (v/v) Nondet P-40 in absolute isopropanol) and shaking the plate, shielded from light, for 10 minutes. Optical density (OD) was determined at 570 nm and 630 nm. The obtained ODs were processed to proliferation indexes (PI), expressed relative to appropriate buffer controls, i.e. ΔOD570–630X over ΔOD570–630CO.

[3] = SPR (BIAcore) binding to immobilized heparin; conditions: for Dissociation rate (Koff): BIAcore X100, HBS-EP+ pH 7.4; for Association rate (Kon): BIAcore X100, HBS-EP+ pH 7.4, 2 min injection, 30 μl/min
Description: Next, we exploited surface plasmon resonance (SPR) analysis to assess the capacity of CXCL4^47–70 and CXCL4L1^47–70 to bind heparin immobilized to a BIAcore sensorchip, a model that mimics the binding of proteins to heparan sulphate proteoglycans associated to the cell surface. When increasing concentrations of the two peptides were injected onto the heparin surface, sensorgram overlays (not shown) allowed the calculation of association (Kon) and dissociation (Koff) rates and of Kd (as Koff/Kon ratio, Table 1). Also, equilibrium binding data were used to generate the saturation curves shown in Figure 8A and used to calculate a Kd value independently from kinetic parameters (Table 1).
SPR measurements were performed on a BIAcore X100 instrument (GE-Healthcare, Milwaukee, WI). Research-grade SA sensorchip was used. For the study of the interaction of heparin with CXCL4^47–70 and CXCL4L1^47–70, heparin was immobilized to a BIAcore sensorchip. Briefly, 13600 Da unfractionated heparin was biotinylated at its reducing end and immobilized onto the SA streptavidin-coated sensorchip. These experimental conditions allowed the immobilization of 200 resonance units (RU) equal to 14.7 fmol/mm^2 of heparin. A sensorchip coated with streptavidin alone was used as a reference and for blank subtraction. The peptides were dissolved in 10 mM HEPES buffer pH 7.4 containing 150 mM NaCl, 3 mM EDTA, 0.05% surfactant P20 (HBS-EP+) and injected at different concentrations over the heparin or streptavidin surfaces for 2 min at a flow rate of 30 μl/min and then washed until dissociation was observed. After each run, the sensorchip was regenerated by injection of HBS-EP+ containing 2.0 M NaCl.

EGF = EGF binding (heterodimerization) assay in 96-well plates; design: species or system human; conditions: amino-terminally biotinylated peptides; 37 °C; 2 μg/ml EGF coated; OD450; n=3
Description: GAG, EGF and CCL5 binding were quantified in 96-well plates following a similar protocol. GAG binding was evaluated by immobilizing low molecular weight heparin (Iduron, Manchester, UK) on EpranEx plates (BD Biosciences), whereas EGF as well as CCL5 recombinant human protein (R&D Systems and PeproTech, respectively) was immobilized on high protein-binding ELISA plates (Corning life sciences, Tewksbury, MA). In brief, 25 μg/ml GAG [diluted in assay buffer 100 mM NaCl, 50 mM NaAc, pH 7.2, and 0.2% (v/v) Tween-20], 2 μg/ml EGF or 50 ng/ml CCL5 (both diluted in PBS), was coated overnight at room temperature on 96-well plates. Plates were washed three times with either assay buffer or 0.5% (v/v) Tween 20 in PBS and blocked at 37°C with buffer enriched with either 0.2% (w/v) gelatin (heparin binding assay) or 0.1% (w/v) casein (EGF or CCL5 binding assay). Subsequently, a dilution curve of biotinylated CXCL4L1^47–70 and CXCL4^47–70 peptide was pipetted on the plate and incubated at 37 °C to allow interaction with heparin, EGF or CCL5. After washing, retained biotinylated peptide was detected by peroxidase-conjugated streptavidin. Peroxidase activity was quantified by measuring the conversion of 3,3′,5,5′-tetramethylbenzidine (Sigma-Aldrich) at 450 nm.

[4] = peptide 0.3 μg/ml, p=0.030 (CXCL4^47–70), p=0.312 (CXCL4L1^47–70)
[5] = BIAcore X100, HBS-EP+ pH 7.4, Scatchard plot analysis of equilibrium binding data, read-out: Kd at equilibrium
[6] = BIAcore X100, HBS-EP+ pH 7.4, from Koff/Kon ratio, read-out: Kd (Koff/Kon)
[7] = BIAcore X100, kinetic and equilibrium values taken together, read-out: Kd (range over both methods)

Substance	effect on CCL5-induced transendothelial migration [1]	Proliferation index (PI), baseline [2, 4]	Proliferation index (PI), baseline ([2]; peptide 1 μg/ml, p=0.030)	Proliferation index (PI), baseline ([2]; peptide 3 μg/ml, p=0.030)	Dissociation rate (Koff) [3] [s⁻¹]	Association rate (Kon) [3] [M⁻¹ s⁻¹]	Kd [3, 5] [nM]	Kd [3, 6] [nM]	Kd [3, 7] [nM]	binding to EGF-coated plate (EGF)	stimulation of monocytic cell chemotaxis compared to CXCL4L1^47–70 ([1]; peptide 1000 to 5000 ng/ml with CCL5 20 ng/ml)
CXCL4L1^47–70: synthetic human carboxy-terminal peptide restricted to the last 24 amino acids of CXCL4L1, Fmoc chemistry	enhanced transendothelial migration of monocytic cells	0.90 ± 0.05	0.82 ± 0.05	0.66 ± 0.04	0.053	52000	1200	1000	1000 to 1200	equally well in a dose-dependent manner	
CXCL4^47–70: synthetic human carboxy-terminal peptide restricted to the last 24 amino acids of CXCL4, Fmoc chemistry (NGRKICLDLQAPLYKKIIKKLLES; not fully specified (N-terminus))	enhanced transendothelial migration of monocytic cells	0.70 ± 0.06	0.69 ± 0.06	0.37 ± 0.04	0.011	670000	72	16	16 to 72	equally well in a dose-dependent manner	more efficiently stimulated monocytic cell chemotaxis compared to CXCL4L1^47–70
